PMC2394794 (Journal of Synchrotron Radiation, 2008)
Like-named read-outs stand apart in the source and are kept apart here.

How the values were obtained:
[1] = molecular target: T1, HCV NS3/4A protease (Hepatitis C virus genotype 1a, UniProt P27958); test: Inhibition of HCV NS3/4A protease by ketoamide inhibitors; type: biochemical; conditions: P2 = DMCP versus P2 = Leu
[2] = molecular target: T1, HCV NS3/4A protease; conditions: experimental over predicted relative Ki*

T1 sequence (P27958 1658-1711): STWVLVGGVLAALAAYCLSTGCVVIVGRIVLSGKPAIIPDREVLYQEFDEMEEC
T1 sequence (P27958 1027-1208): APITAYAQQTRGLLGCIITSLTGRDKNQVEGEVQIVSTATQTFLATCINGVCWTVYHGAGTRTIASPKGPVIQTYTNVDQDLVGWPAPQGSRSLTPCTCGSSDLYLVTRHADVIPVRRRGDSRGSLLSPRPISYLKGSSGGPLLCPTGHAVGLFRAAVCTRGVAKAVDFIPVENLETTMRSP

CC(C)(C)NC(=O)N[C@H](C(=O)N1C[C@H]2[C@@H]([C@H]1C(=O)NC(CC1CCC1)C(=O)C(N)=O)C2(C)C)C(C)(C)C (stereo partly drawn) [Compd 9, ^tBu–urea–t-Bug–DMCP–c-Bua–CONH2]
increase in potency relative to Leu [1]: 70 fold | Ki* ratio exp./SA ([2]; P2 series): 4.1 | Ki* ratio exp./SA ([2]; P3 series): 9.0
